In patent US8367718B2, “Epigallocatechin gallate trimer and α-glucosidase inhibitor containing epigallocatechin gallate polymer” (Suntory Holdings Limited, priority 2008, dated 2013):
“Also recorded” adds a separate entry of the source. One block for each molecule: values may come before it.

How the values were obtained:
α-glucosidase = experiment: Alpha-glucosidase inhibitory activity of EGCG polymers (p-nitrophenyl-α-D-glucopyranoside substrate, A405 nm); type: biochemical; details: for α-glucosidase inhibitory activity (in words): qualitative statement; for inhibitory activity relative to the EGCG monomer: α-glucosidase, compared with EGCG monomer
Experimental: A […] sodium phosphate buffer solution was prepared by blending 0.1 M NaH2PO4.2H2O and 0.1M Na2HPO4.12H2O and the pH was adjusted to 7.0. To this, 2 g/L bovine serum albumin (F-V, manufactured by Nacalai Tesque Inc., pH 5.2, purity 96%) and 0.2 g/L NaN3 (manufactured by Nacalai Tesque Inc., special grade reagent) were added. An enzyme solution was prepared by dissolving α-glucosidase (manufactured by Wako Pure Chemical Industries Ltd., derived from yeast, 100 units/mg) in the above buffer solution so as to obtain 0.5 units/mg protein /ml (100 μg/20 ml). A substrate solution was prepared by dissolving p-nitrophenyl-α-D-glucopyranoside (manufactured by Nacalai Tesque Inc., special grade reagent) in the buffer solution so as to obtain 5 mM (7.525 mg/5 ml).
Of the samples used for evaluation, theasinensin (TSN)-A and TSN-D were synthesized in accordance with the paper (Hashimoto, F. Nonaka, G. Nishioka, I. Chem. Pharm. Bull. 36 (5), 1676-1684 (1988)) and oolongtheanin-gallate (hereinafter referred to as “OTNG”) were synthesized in accordance with the method described in the paper of J. Agric. Food Chem. 53, 4593-4598 (2005).
These samples were prepared so as to satisfy 10 mg/ml DMSO and serially diluted 6 times by doubling dilution. Using a 96-well microplate, enzyme solution (45 μL) was added to a sample solution (10 μL) and pre-incubated at 37° C. for 5 minutes. Thereafter, the substrate solution (45 μL) was added and absorbance was measured at A 405 nm. After incubation was performed at 37° C. for 5 minutes, absorbance was measured at A 405 nm. The inhibition rate was calculated as a difference from the absorbance at A405 nm of a control, which contains DMSO alone in place of a sample. Each activity measurement was performed twice.

maltase = details: background art, literature values; read-out: maltase inhibitory activity IC50; cited from earlier work

Molecule: 3-sophoroside-5-glucoside of peonidin
- IC50 (maltase): 200 µM

Molecule: O=C(O[C@@H]1Cc2c(O)cc(O)cc2O[C@@H]1c1cc(O)c(O)c(O)c1-c1c([C@H]2Oc3cc(O)cc(O)c3C[C@H]2OC(=O)c2cc(O)c(O)c(O)c2)cc(O)c(O)c1O)c1cc(O)c(O)c(O)c1 (single isomer, unassigned) [TSN-D, theasinensin-D]
- α-glucosidase inhibitory activity (in words) (α-glucosidase): strong α-glucosidase inhibitory activity

Molecule: O=C(O[C@@H]1Cc2c(cc(O)c(Cc3c(O)cc(O)c4c3O[C@H](c3cc(O)c(O)c(O)c3)[C@H](OC(=O)c3cc(O)c(O)c(O)c3)C4)c2O)O[C@@H]1c1cc(O)c(O)c(O)c1)c1cc(O)c(O)c(O)c1 [OHBF-B, oolong homobisflavan-B]
- α-glucosidase inhibitory activity (in words) (α-glucosidase): strong α-glucosidase inhibitory activity

Molecule: O=C(O[C@@H]1Cc2c(O)cc(O)cc2O[C@@H]1c1cc(O)c(O)c(O)c1-c1c([C@H]2Oc3cc(O)cc(O)c3C[C@H]2OC(=O)c2cc(O)c(O)c(O)c2)cc(O)c(O)c1O)c1cc(O)c(O)c(O)c1 (single isomer, unassigned) [TSN-A, theasinensin A]
- IC50 (maltase): 142 µM

Now from value to molecule, other results behind:

- inhibitory activity relative to the EGCG monomer (α-glucosidase): 10 times
Molecule: O=C(O[C@@H]1Cc2c(cc(O)c(Cc3c(O)c(Cc4c(O)cc(O)c5c4O[C@H](c4cc(O)c(O)c(O)c4)[C@H](OC(=O)c4cc(O)c(O)c(O)c4)C5)c4c(c3O)C[C@@H](OC(=O)c3cc(O)c(O)c(O)c3)[C@@H](c3cc(O)c(O)c(O)c3)O4)c2O)O[C@@H]1c1cc(O)c(O)c(O)c1)c1cc(O)c(O)c(O)c1 [OHBF-trimer-4, (2R,3R)-8-(((2R,3R)-6-(((2R,3R)-5,7-dihydroxy-3-(3,4,5-trihydroxybenzoyloxy)-2-(3,4,5-trihydroxyphenyl)chroman-6-yl)methyl)-5,7-dihydroxy-3-(3,4,5-trihydroxybenzoyloxy)-2-(3,4,5-trihydroxyphenyl)chroman-8-yl)methyl)-5,7-dihydroxy-2-(3,4,5-trihydroxyphenyl)chroman-3-yl 3,4,5-trihydroxybenzoate]
- α-glucosidase inhibitory activity (in words) (α-glucosidase; listed as oolong homobisflavan-trimer-4): particularly strong activities; also recorded: significant inhibitory activity; also recorded: high activity

- α-glucosidase inhibitory activity (in words) (α-glucosidase): significant inhibitory activity
Molecule: O=C(OC1Cc2c(O)cc(O)c(Cc3c(O)c(Cc4c(O)c(Cc5c(O)cc(O)c6c5OC(c5cc(O)c(O)c(O)c5)C(OC(=O)c5cc(O)c(O)c(O)c5)C6)c(O)c5c4OC(c4cc(O)c(O)c(O)c4)C(OC(=O)c4cc(O)c(O)c(O)c4)C5)c4c(c3O)CC(OC(=O)c3cc(O)c(O)c(O)c3)C(c3cc(O)c(O)c(O)c3)O4)c2OC1c1cc(O)c(O)c(O)c1)c1cc(O)c(O)c(O)c1 [OHBF-tetramer-2, (2R,2′R,3R,3′R)-8,8′-(2R,2′R,3R,3′R)-8,8′-methylenebis(5,7-dihydroxy-3-(3,4,5-trihydroxybenzoyloxy)-2-(3,4,5-trihydroxyphenyl)chroman-8,6-diyl)bis(methylene)bis(5,7-dihydroxy-2-(3,4,5-trihydroxyphenyl)chroman-8,3-diyl) bis(3,4,5-trihydroxybenzoate)]

- α-glucosidase inhibitory activity (in words) (α-glucosidase): significant inhibitory activity
Molecule: O=C(O[C@@H]1Cc2c(cc(O)c(Cc3c(O)c(Cc4c(O)cc(O)c5c4O[C@H](c4cc(O)c(O)c(O)c4)[C@H](OC(=O)c4cc(O)c(O)c(O)c4)C5)c(O)c4c3O[C@H](c3cc(O)c(O)c(O)c3)[C@H](OC(=O)c3cc(O)c(O)c(O)c3)C4)c2O)O[C@@H]1c1cc(O)c(O)c(O)c1)c1cc(O)c(O)c(O)c1 [OHBF-trimer-2, (2R,3R)-8-(((2R,3R)-8-(((2R,3R)-5,7-dihydroxy-3-(3,4,5-trihydroxybenzoyloxy)-2-(3,4,5-trihydroxyphenyl)chroman-6-yl)methyl)-5,7-dihydroxy-3-(3,4,5-trihydroxybenzoyloxy)-2-(3,4,5-trihydroxyphenyl)chroman-6-yl)methyl)-5,7-dihydroxy-2-(3,4,5-trihydroxyphenyl)chroman-3-yl 3,4,5-trihydroxybenzoate]

- α-glucosidase inhibitory activity (in words) (α-glucosidase; listed as Oolong homobisflavan-tetramer-1): particularly strong activities
- inhibitory activity relative to the EGCG monomer (α-glucosidase): 10 times
Molecule: O=C(OC1Cc2c(O)cc(O)c(Cc3c(O)c(Cc4c(O)c(Cc5c(O)cc(O)c6c5OC(c5cc(O)c(O)c(O)c5)C(OC(=O)c5cc(O)c(O)c(O)c5)C6)c5c(c4O)CC(OC(=O)c4cc(O)c(O)c(O)c4)C(c4cc(O)c(O)c(O)c4)O5)c4c(c3O)CC(OC(=O)c3cc(O)c(O)c(O)c3)C(c3cc(O)c(O)c(O)c3)O4)c2OC1c1cc(O)c(O)c(O)c1)c1cc(O)c(O)c(O)c1 [OHBF-tetramer-1, (2R,3R)-8-(H2R,3R)-8-(((2R,3R)-8-(((2R,3R)-5,7-dihydroxy-3-(3,4,5-trihydroxybenzoyloxy)-2-(3,4,5-trihydroxyphenyl)chroman-8-yl)methyl)-5,7-dihydroxy-3-(3,4,5-trihydroxybenzoyloxy)-2-(3,4,5-trihydroxyphenyl)chroman-6-yl)methyl)-5,7-dihydroxy-3-(3,4,5-trihydroxybenzoyloxy)-2-(3,4,5-trihydroxyphenyl)chroman-6-yl)methyl)-5,7-dihydroxy-2-(3,4,5-trihydroxyphenyl)chroman-3-yl 3,4,5-trihydroxybenzoate]
- α-glucosidase inhibitory activity (in words) (α-glucosidase; listed as oolong homobisflavan-tetramer-1): significant inhibitory activity; also recorded: high activity
